Measured values: patent US7749548B2, “Composite for the improvement of the smell of the armpit” (Ajou Medics Co., Ltd., priority 2004, dated 2010)

Key:
Format in all cases: in vivo, human
[1] = test system: axillary odor of volunteers with sweat bromidrosis; test: Measurement of axillary odor by sanitary cotton, graded by two medical doctors
Source text: 1) Sanitary cottons are kept in both armpits for ten minutes by two medical doctors' inspection of armpit odor for classification of 4 grades.
“minimal” is almost smell-less;
“mild” is available smell within distance of 15 cm;
“moderate” is further than distance of 15 cm; and
“severe” is beyond the distance of 30 cm.
(§1) Group I Test group with the composition of example 1
(§2) No one was allowed to use other cosmetics, perfume, and anti-germ soap not to influence any result.
Measurements of axillary odor were decided according to the smell degree by means of sanitary cotton, which were classified into four (4) grades. Namely, sanitary cottons are kept in both armpits for ten minutes by two medical doctors' inspection of armpit odor for classification of 4 grades as shown in the Table 1:
(2) Judgment of Results: After two (2) and four (4) weeks of the application of the composition, the odor grades were judged by means of sanitary cottons from both armpits of the participants.
Measurement of axillary ordor was carried out by two medical doctors by using sanitary cottons in order to evaluate objectively as shown below

[2] = Side-effects reported by the volunteers during the 4-week application; details: 4 weeks, twice a day
[3] = test system: sweat bromidrosis (axillary odor) of volunteers; test: Self-assessment of improvement of armpit odor by individual queries, 4 weeks of spraying twice a day; details: after 4 weeks
Source text: 1. Application of Medical Treatment Composition of Example 1
2) Volunteers are selected from the group who can smell the ordor of sweat bromidrosis by sanitary cotton method and who smell over “mild” class.
3) Fifteen volunteers who were fitted for the above criteria and smell over “mild” class were selected.
as §1, §2
Subjective judgment of odor degree through individual queries, which include:
4) degrees of improvement of odor level during the period of application; and
D) Percentage of Improvement by Self-Assessment
The degree of improvement of ordor after 4 weeks were measured by self-assessment. All of 15 persons replied over 50% of improvement in the experimental group, while 10 persons in comparison group expressed positive improvement and four persons' replied negative.

[4] = 15 volunteers, objective odor grade
[5] = sprayed twice a day in armpit, 15 volunteers

CCO [80% ethanol, ethanol]
Degree of improvement: 1stage of improvement ([1]; 15 volunteers, after 4 weeks): 6 (40%) persons (%) | Degree of improvement: 2 stage or more of improvement ([1]; 15 volunteers, after 4 weeks): 1 (7%) persons (%) | Degree of improvement: no improvement ([1]; 15 volunteers, after 4 weeks): 8 (53%) persons (%) | Initiating period of improvement: After 2 weeks [1, 4]: 1 (7%) persons (%) | Initiating period of improvement: Not improved [1, 4]: 8 (53%) persons (%) | Initiating period of improvement: Within 2 weeks [1, 4]: 6 (40%) persons (%) | Persons who showed improvement of odor grade ([1]; after 4 weeks, out of 15): 7 persons | Persons among the improved who showed 2 stages or more of improvement ([1]; after 4 weeks, listed as Group II): one and One | Persons among the improved with improvement after two weeks application ([1]; after two weeks application): 6 persons | Number and percentage of side-effect: No side-effect [2]: 12 (80%) persons (%) | Number and percentage of side-effect: Side effect ([2]; slight tingle feel right after application): 3 (20%) persons (%) | Persons who expressed positive improvement (self-assessment) ([3]; of 15): 10 persons | Persons who replied negative (self-assessment) ([3]; of 15): four | Percentage of improvement by self-assessment: Got worse [3, 5]: 0 (0%) persons (%) | Percentage of improvement by self-assessment: Improved 25% [3, 5]: 1 (7%) persons (%) | Percentage of improvement by self-assessment: Improved 50% [3, 5]: 2 (13%) persons (%) | Percentage of improvement by self-assessment: Improved 75% [3, 5]: 7 (47%) persons (%) | Percentage of improvement by self-assessment: Improved 100% [3, 5]: 1 (7%) persons (%) | Percentage of improvement by self-assessment: Not applicable [3, 5]: 4 (27%) persons (%)
